Experimental data taken from the supplement of paper PMC10307832.

Tests used:
Experiment in all cases: relative viability (nuclei count vs DMSO), 5 days (fraction); higher = more cells survive
EHT 1864 + Trametinib = compound: C1COCCN1CC2=CC(=O)C(=CO2)OCCCCCSC3=C4C=CC(=CC4=NC=C3)C(F)(F)F [EHT 1864] + CC(=O)Nc1cccc(-n2c(=O)n(C3CC3)c(=O)c3c(Nc4ccc(I)cc4F)n(C)c(=O)c(C)c32)c1 [Trametinib] (partner 0.02 µM)
In short: (§1)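 Lung cancer cell lines were pin-tool dosed in 1536-well plates on the day after seeding, with either a lone drug or a fixed anchor-drug dose plus five library-drug doses (not always all listed) in √10 steps. Nuclei were counted on 4× images after 5 days. Relative viability is the ratio of treated-well to vehicle-well nuclei counts, with each value a median of duplicate plates.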

EHT 1864 + Lapatinib = compound: C1COCCN1CC2=CC(=O)C(=CO2)OCCCCCSC3=C4C=CC(=CC4=NC=C3)C(F)(F)F [EHT 1864] + CS(=O)(=O)CCNCc1ccc(-c2ccc3ncnc(Nc4ccc(OCc5cccc(F)c5)c(Cl)c4)c3c2)o1 [Lapatinib] (partner 2 µM)
In short: as §1

EHT 1864 + Phenformin = compound: C1COCCN1CC2=CC(=O)C(=CO2)OCCCCCSC3=C4C=CC(=CC4=NC=C3)C(F)(F)F [EHT 1864] + N=C(N)NC(=N)NCCc1ccccc1 [Phenformin] (partner 250 µM)
In short: as §1

EHT 1864 + Olaparib = compound: C1COCCN1CC2=CC(=O)C(=CO2)OCCCCCSC3=C4C=CC(=CC4=NC=C3)C(F)(F)F [EHT 1864] + O=C(c1cc(Cc2n[nH]c(=O)c3ccccc23)ccc1F)N1CCN(C(=O)C2CC2)CC1 [Olaparib] (partner 8 µM)
In short: as §1

Cell Line | relative viability (EHT 1864 + Trametinib; first compound 0.04 µM) | relative viability (EHT 1864 + Trametinib; first compound 0.1265 µM) | relative viability (EHT 1864 + Trametinib; first compound 0.4 µM) | relative viability (EHT 1864 + Trametinib; first compound 1.265 µM) | relative viability (EHT 1864 + Trametinib; first compound 4 µM) | relative viability (EHT 1864 + Lapatinib; first compound 0.04 µM) | relative viability (EHT 1864 + Lapatinib; first compound 0.1265 µM) | relative viability (EHT 1864 + Lapatinib; first compound 0.4 µM) | relative viability (EHT 1864 + Lapatinib; first compound 1.265 µM) | relative viability (EHT 1864 + Lapatinib; first compound 4 µM) | relative viability (EHT 1864 + Phenformin; first compound 0.04 µM) | relative viability (EHT 1864 + Phenformin; first compound 0.1265 µM) | relative viability (EHT 1864 + Phenformin; first compound 0.4 µM) | relative viability (EHT 1864 + Phenformin; first compound 1.265 µM) | relative viability (EHT 1864 + Phenformin; first compound 4 µM) | relative viability (EHT 1864 + Olaparib; first compound 0.04 µM) | relative viability (EHT 1864 + Olaparib; first compound 0.1265 µM) | relative viability (EHT 1864 + Olaparib; first compound 0.4 µM) | relative viability (EHT 1864 + Olaparib; first compound 1.265 µM) | relative viability (EHT 1864 + Olaparib; first compound 4 µM)
COR-L 105 | 0.443 | 0.395 | 0.513 | 0.462 | 0.508 | 0.345 | 0.374 | 0.338 | 0.38 | 0.334 | 0.535 | 0.427 | 0.602 | 0.536 | 0.535 | 0.792 | 0.692 | 0.777 | 0.648 | 0.624
LK-2 | 0.673 | 0.48 | 0.719 | 0.596 | 1.02 | 1.05 | 0.797 | 0.911 | 1.03 | 0.881 | 0.539 | – | 0.591 | 0.369 | 0.373 | 0.518 | 0.608 | 0.608 | 0.551 | 0.68
NCI-H727 | 0.389 | 0.386 | 0.382 | 0.374 | 0.421 | 0.841 | 0.743 | 0.635 | – | 0.881 | 0.551 | 0.574 | 0.481 | 0.461 | 0.597 | 1.07 | 0.75 | 0.459 | 0.529 | 0.524
RERF-LC-KJ | 0.896 | 0.868 | 0.866 | 0.826 | 0.832 | 0.916 | 0.913 | 0.925 | 0.798 | 0.854 | 0.381 | 0.428 | 0.453 | 0.393 | 0.404 | 0.902 | 0.86 | 0.849 | 0.913 | 0.76
NCI-H2023 | 0.514 | 0.459 | 0.492 | 0.569 | 0.573 | 0.813 | 0.558 | 0.727 | 0.919 | 0.84 | 0.405 | 0.417 | 0.371 | 0.358 | 0.347 | 0.403 | 0.525 | 0.411 | 0.48 | 0.461
NCI-H322M | 0.525 | 0.525 | 0.544 | 0.595 | 0.595 | 0.613 | 0.527 | 0.634 | 0.522 | 0.629 | 0.798 | 0.739 | 0.752 | 0.783 | 0.824 | 0.704 | 0.822 | 0.811 | 0.782 | 0.879
NCI-H1666 | 0.961 | 0.886 | 0.8 | 0.884 | 0.862 | 0.822 | 0.484 | 0.584 | 0.775 | 0.841 | 0.614 | 0.504 | 0.584 | 0.562 | 0.627 | 0.732 | 0.756 | 0.73 | 0.839 | 0.775
NCI-H1648 | 0.545 | – | 0.44 | 0.4 | 0.607 | – | – | – | – | – | – | – | – | – | – | 0.765 | – | 0.759 | 0.769 | 0.984
NCI-H2087 | 0.188 | – | 0.211 | 0.167 | 0.215 | 1.03 | 0.485 | 1.01 | 0.614 | 0.789 | 0.453 | – | 0.462 | 0.434 | 0.518 | 0.545 | – | 0.468 | 0.545 | 0.534
